In patent publication US9975853B2, “Tetrahydroisoquinolinone derivatives and their use in the inhibition of the HSP70 protein” (Julius-Maximilians-Universitaet Wuerzburg, priority 2014, dated 2018):
Entries after “also recorded” stand apart in the source; their conditions may differ.

Assays:
[1] = biological target: T1, HSP72 (Homo sapiens, UniProt P0DMV8); assay: Western blot analysis of HSP72 expression in INA-6 cells; assay type: cell-based; settings: INA-6, 0.6 μM, with Z-VAD-FMK 50 μM
T1 construct: endogenous in cells; host or cells: INA-6 multiple myeloma cells
Method: Western Blot Analysis. Protein expression levels were determined with Western blotting procedures (M. Chatterjee, et al., Blood 2002, 100, 3311-3318). Following separation by SDS-PAGE, proteins were transferred onto nitrocellulose membranes (Schleicher & Schuell, Dassel, Germany) and stained with antibodies against Hsp72, Hsp73, Hsp90 (all from Enzo Life Science, Lörrach, Germany), AIF, lamin A, caspases 9 and 3, PARP (all from Santa Cruz, Heidelberg, Germany). An anti-α tubulin antibody (Sigma, Deisenhofen, Germany) was employed to assess equal loading. Secondary antibodies used were anti-rat (Enzo Life Science), anti-rabbit and anti-mouse (both from GE Healthcare, Little Chalfont, UK). […] The heat shock proteins HSP72 and HSP73 critically interact with HSP90 in order to mediate an essential chaperone function for a multitude of proteins including various signaling intermediates. According to an established HSP72/73-dependent client protein signature and its role for survival in MM, the proposed anti-HSP72/73 effect of trans-7b in the INA-6 multiple myeloma (MM) cell line model was evaluated. […] Lysates were cleared by centrifugation, measured by quantitative protein assay (Bio-Rad, München, Germany) and subjected to SDS gel electrophoresis. […]

[2] = test system: peripheral blood mononuclear cells (PBMCs); assay: Cell viability assay in non-malignant peripheral blood mononuclear cells; assay type: cell-based, human; settings: 72 hours
Method: The effect of pharmacological Hsp70 inhibition on cell viability was analyzed after 72 hours of treatment in both non-malignant (mononuclear cells from the peripheral blood) and malignant lymphocytes (multiple myeloma cells). The mononuclear cells were separated from the peripheral blood of healthy donors by Ficoll-Hypaque density gradient centrifugation. The human cell line INA-6 represents a well-established model for multiple myeloma. The percentage of viable and apoptotic cell fractions was assessed using an annexin V-FITC/propidium iodide (PI) staining kit (Bender MedSystems, Vienna, Austria) according to manufacturer's instructions. In brief, cells were washed in PBS, incubated for 10 min in 100 ml binding buffer (10 mM HEPES/NaOH, pH 7.4, 140 mM NaCl, 2.5 mM CaCl2) containing 2.5 ml annexin V-FITC mix and 1 mg/ml propidium iodide (PI), subsequently diluted with 100 ml binding buffer and analyzed by flow cytometry (FACSCalibur/CELLQuest; Becton Dickinson, Heidelberg, Germany). […] To establish kill curves, concentrations of the tested compounds were titrated, and the measured viable cell fractions were further analyzed using the Prism Calculation Software (GraphPad Software Inc., La Jolla, USA). […]

T1 sequence (P0DMV8 whole entry): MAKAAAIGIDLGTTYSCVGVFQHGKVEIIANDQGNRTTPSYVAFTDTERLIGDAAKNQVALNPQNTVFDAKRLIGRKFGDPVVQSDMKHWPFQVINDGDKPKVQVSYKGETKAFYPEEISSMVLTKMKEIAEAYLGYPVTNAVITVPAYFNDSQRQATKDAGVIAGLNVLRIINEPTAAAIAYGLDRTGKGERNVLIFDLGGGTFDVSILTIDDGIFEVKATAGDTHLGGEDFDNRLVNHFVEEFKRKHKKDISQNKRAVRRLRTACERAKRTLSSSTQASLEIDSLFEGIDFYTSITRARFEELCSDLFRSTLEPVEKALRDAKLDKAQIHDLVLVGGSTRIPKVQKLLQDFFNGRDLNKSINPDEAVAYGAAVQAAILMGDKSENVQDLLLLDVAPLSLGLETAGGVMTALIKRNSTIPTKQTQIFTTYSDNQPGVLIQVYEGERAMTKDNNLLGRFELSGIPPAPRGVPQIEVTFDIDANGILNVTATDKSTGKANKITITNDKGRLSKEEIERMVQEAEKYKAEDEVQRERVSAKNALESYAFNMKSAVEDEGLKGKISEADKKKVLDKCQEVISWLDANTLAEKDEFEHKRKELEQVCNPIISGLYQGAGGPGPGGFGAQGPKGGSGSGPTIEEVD

COc1ccc(C2C(C(=O)Nc3cccc(C)n3)c3ccccc3C(=O)N2c2ccccc2)cc1 (stereo not drawn) [trans-7b, trans-3-(4-Methoxyphenyl)-N-(6-methylpyridin-2-yl)-1-oxo-2-phenyl-1,2,3,4-tetrahydroisoquinoline-4-carboxamide]
HSP72 constitutive expression level [1]: decreases; also recorded: reduced | cytotoxic effect in primary PBMCs (viability) [2]: lack any cytotoxic effect even in higher micromolar concentrations
